Reference: patent US20240285808A1, “MOLECULAR PROBES FOR IN VIVO DETECTION OF ALDEHYDES” (The General Hospital Corporation, priority 2021, published 2024)
Where “and” joins values, the source holds several entries; their conditions need not be identical. Identical values can stand only once.

What was measured:
[1] = test system: IRI kidney cortex; assay: MR imaging of kidney ischemia-reperfusion (IRI) model; type: in vivo, mouse; settings: for Change in longitudinal relaxation time (ΔT1): 4 h post injection, n = 11
Procedure: Kidney Ischemia-Reperfusion (IRI) Model:
Male C57BL/6 mice (10-12 weeks old; Charles River Laboratories) were anesthetized with ketamine/xylazine (100/10 mg/kg; IP). Animals were then placed prone while maintaining rectal temperature strictly at 37° C. with a feedback-regulated heating pad. The skin incision was performed on the left lower flank while adhering to strict aseptic procedures. After accessing the retroperitoneal space, the left kidney, and the left renal artery-vein was identified. Ischemia was induced by applying a micro serrefine clip onto the renal artery and vein. Successful ischemia was visually confirmed by a gradual uniform darkening of the kidney. The clamp was removed 26 minutes later, and a rapid change verified successful reperfusion in kidney color from a dark maroon to a healthy dark pink. The skin was closed using surgical staples, and animals were returned to their home cages. Analgesia was provided by buprenorphine (0.1 mg/kg, SC, bid for three days starting 1 hour before IRI surgery).
Animals were imaged 14 days after IRI and were euthanized after imaging. The right and left kidneys were removed, cortex and medulla regions of each kidney were separated for further analysis.
For kidney imaging, a series of three-dimensional inversion-recovery FLASH images were acquired at baseline and 4 hours after Mn-16 administration with inversion recovery times of 7, 307, 557, 707, 857, 1507, 3007, 5007, and 7007 msec. (TR/TE/FA=5 see/72 msec, field of view (FOV) […], dimension 128×128, slice thickness 0.7 mm).
For kidney imaging analysis, longitudinal relaxation time (T1) was obtained by fitting inversion recovery data to a T1 relaxation equation (M0×(1−2 exp(−TI/T1))) and change in T1 (ΔT1) was calculated by subtracting T1 measured prior to probe injection (T1pre) from T1 measured after injection (T1post), eq 23.

[2] = test system: liver of CDAHFD mice; assay: MR imaging of liver in non-alcoholic steatohepatitis (CDAHFD) model; type: in vivo, mouse; settings: 20 min post injection
Excerpt: Non-Alcoholic Steatohepatitis Liver Fibrosis Model:
A total of 40 C57BL/6 mice were used and randomized to each study group. To induce NASH, 6-week old, male C57BL/6 mice (Charles River Labs, Wilmington, MA) were fed a choline deficient, high fat diet (CDAHFD) consisting of 60 kcal % fat and 0.1% methionine (A06071302; Research Diets, New Brunswick, NJ) by weight. No animals were excluded from the study.
Three groups of mice were studied:
Group A, mice were fed CDAHFD for 2 (n=6), 6 (n=6), 10 (n=6) weeks and imaged with probe Gd-9.
Group B, mice were fed CDAHFD for 10 weeks followed by normal chow for 1 (n=6) or 4 weeks (n=6) and imaged with probe Gd-9.
Group C, mice were fed normal chow for 2, 6, 10, 11 or 14 weeks (n=10) and imaged with probe Gd-9.
Animals were anesthetized with isoflurane (1-2%) and placed in a specially designed cradle with body temperature maintained at 37° C. The inhaled isoflurane level was adjusted to maintain a respiration rate of 60±5 breaths per minute. The tail vein was cannulated for intravenous (i.v.) delivery of the contrast agent while the animal was positioned in the scanner. Imaging was performed at 4.7 T using a small bore animal scanner with a custom-built volume coil. Mice were imaged with a dose of 100 μmol/kg from 30 mM stock solution of Gd or Mn complex.
Following the imaging session, animals were sacrificed (75 min p.i.) and liver tissue was subjected to histopathologic analysis.
For liver imaging analysis, a region of interest (ROI) was manually traced encompassing the liver parenchyma while avoiding major blood vessels. A second ROI was placed on the dorsal muscle visible in the same image slice to quantify the signal intensity in the muscle for comparison. Seven ROIs were placed in the field of view without any tissue (air) to measure the variation in background signal. More than 20 axial slices per mouse across the entire liver were analyzed in this fashion. […] Contrast to noise ratio (CNR) was calculated by measuring the difference in signal intensity (SI) between liver and muscle and normalizing to the standard deviation of the signal in the air, eq 21. ΔCNR was calculated by subtracting CNR measured prior to probe injection (CNRPre) from CNR measured after injection (CNRPost), eq 22.
Mice were fed with CDAHFD or standard chow for 2, 6, or 10 weeks; two additional groups of mice received CDAHFD for 10 weeks and then standard chow for 1 or 4 weeks (FIG. 70; 2 wk, 6 wk, and 10 wk bars correspond to CDAHFD; 1 wk and 4 wk bars correspond to standard chow; “MRI” indicates MRI with Gd-9).

| Compound | Mn concentration ([1]; IRI kidney cortex) | Change in longitudinal relaxation time (ΔT1) ([1]; IRI kidney cortex) | Mn concentration ([1]; contralateral cortex) | Change in longitudinal relaxation time (ΔT1) ([1]; contralateral cortex) | ΔCNR of liver (row head ACNR) ([2]; 2 wk CDAHFD) | ΔCNR of liver (row head ACNR) ([2]; 6 wk CDAHFD) | ΔCNR of liver (row head ACNR) ([2]; 10 wk CDAHFD then 1 wk Withdrawal) | ΔCNR of liver (row head ACNR) ([2]; 10 wk CDAHFD then 4 wk Withdrawal) | ΔCNR of liver (row head ACNR) ([2]; 10 wk CDAHFD) | ΔCNR of liver (row head ACNR) ([2]; Control (standard chow)) |
| --- | --- | --- | --- | --- | --- | --- | --- | --- | --- | --- |
| NOC(CCC(=O)NCCCN1CCN(CC(=O)[O-])Cc2cccc(n2)CN(CC(=O)[O-])CC1)C(=O)O.[Mn+2] (stereo not shown) [Mn-16] | 90 nmol/g | -395 ms | 60 nmol/g | -230 ms |  |  |  |  |  |  |
| NN1CCN(C(=O)CCC(C(=O)[O-])N2CCN(CC(=O)[O-])CCN(CC(=O)[O-])CCN(C(CCC(=O)N3CCN(N)CC3)C(=O)[O-])CC2)CC1.[Gd+3] (stereo not drawn) [Gd-9, cis-1,4-Gd-(CHyd)2] |  |  |  |  | 1.3±0.4 and 1.3 ± 0.3 | 2.1 ± 0.4 | 0.9±0.3 | 0.3±0.2 | 2.5±0.5 | 0.1±0.4 |
